Laboratory results from patent US5360925A, “Dual inhibitors of no synthase and cyclooxygenase, process for their preparation and therapeutical compositions containing them” (priority 1992, dated 1994).

How the values were obtained:
[1] = molecular target: T1, cyclooxygenase (Mus musculus, UniProt Q05769); assay: In vitro effect on prostaglandin (6 keto PGF1α) production induced by LPS+IFNγ on J774A1 monocyte/macrophage cell line; type: cell-based, murine; conditions: for effect on release of 6 keto PGF1α: LPS+IFNγ, J774A1 culture media
T1 construct: main cyclooxygenase products produced by J774A1 cell line; endogenous in cells
T1 sequence (Q05769 18-604): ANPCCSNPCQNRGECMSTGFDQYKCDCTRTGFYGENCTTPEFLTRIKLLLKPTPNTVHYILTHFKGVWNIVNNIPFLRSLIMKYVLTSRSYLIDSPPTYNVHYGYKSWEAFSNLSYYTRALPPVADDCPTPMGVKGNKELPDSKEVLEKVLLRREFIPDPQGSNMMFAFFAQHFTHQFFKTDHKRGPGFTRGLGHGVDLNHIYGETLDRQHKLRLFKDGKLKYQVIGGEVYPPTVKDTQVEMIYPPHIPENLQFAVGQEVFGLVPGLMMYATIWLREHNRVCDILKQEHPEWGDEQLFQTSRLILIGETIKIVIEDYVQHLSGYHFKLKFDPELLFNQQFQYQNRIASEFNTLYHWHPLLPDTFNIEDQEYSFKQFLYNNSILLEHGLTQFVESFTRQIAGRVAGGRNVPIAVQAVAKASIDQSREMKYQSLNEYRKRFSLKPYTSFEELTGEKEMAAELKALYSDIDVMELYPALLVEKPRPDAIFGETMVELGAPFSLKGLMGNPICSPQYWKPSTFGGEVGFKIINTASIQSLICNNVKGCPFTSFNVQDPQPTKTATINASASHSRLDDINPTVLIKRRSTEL
Procedure: 6-In vitro effect on prostaglandin production induced by LPS+IFNγ on J774A1 monocyte/macrophage cell line:
Levels of one of the main cyclooxygenase products produced by J774A1 cell line (i.e.: 6 keto PGF1α) the stable metabolite of PGI2 were assessed in the culture media by a specific radioimmunoassay (NEN, Kit NEK 025).

[2] = tested on: J774 A1 monocyte/macrophage cell line; assay: In vitro effect on nitrite production induced by LPS+INFγ on J774 A1 monocyte/macrophage cell line; type: cell-based, murine
Description: 5-In vitro effect on nitrite production induced by LPS+INFγ on J774 A1 monocyte/macrophage cell line:
Macrophage type cells like J774 A1 cell line are interesting to use since they are important cells in inflammation and express large amount of NO (due to the induction of NO synthase) and cyclooxygenase products. They are activated with lipopolysaccharide (LPS) in presence of interferon γ (INFγ). This assay was used to compare the effects of compounds of the invention with the association of their separated parent compounds.
Murine monocyte/macrophage cells were grown in Dubecco's modified Eagle's medium at 37° C. The cells were plated in 24 well culture plate (NUNC) and were used for experiments at about 2×10^5 cells/plate. The cells were activated with LPS (1 μg/ml) from E. Coli (SO55:B5) and murine recombinant IFNγ (50 U/ml) and then incubated in the presence or absence of the compounds. After 48 h nitrite (NO2 -) levels, which correlate with the activation of NO synthase, were assessed in the culture media by the colorimetric method according to Green et al (L. Green, D. Wagner, J. Glogowski, P. Skipper, J. Wishwok and S. Tannenbaum, Analysis of nitrate, nitrite and [15N] nitrate in biological fluids. Analytical Biochemistry 126, 131-138, 1982).

[3] = tested on: neuronal death after focal cerebral ischemia; assay: In vivo effect on neuronal death after focal cerebral ischemia in mice; conditions: 3 mg/kg ip, 5 hours after middle cerebral artery occlusion; mean of six animals
Procedure: 9-In vivo effect on neuronal death after focal cerebral ischemia in mice:
Systemic intraperitoneal (ip) administration of the compounds was carried out 5 hours after cortical infarction induced by the occlusion of the middle cerebral artery in male Swiss mice (20-22 g), according to Duverger et al.--Pharmacology of cerebral ischemia in Krieglstein and Oberpichler, Wissenschaftliche Verlagsgesellschaft, Stuttgart, 1990, 409-413. Four days later, the mice were decapitated and their brains removed and frozen to be then sectioned in coronal slices of […] thickness. Area infarction was measured by image analysis. Reduction of infarcted volume was measured and compared with non treated animal. The percentage indicated the mean reduction of infarct from six animals per group--MK 801, a NMDA antagonist was used as a control substance.

[4] = molecular target: T2, cyclooxygenase (Oryctolagus cuniculus, UniProt O97554); assay: In vitro effect on arachidonic acid induced aggregation of washed rabbit platelets; type: cell-based; conditions: arachidonic acid 0.5 mM, read-out: IC50 (arachidonic acid induced platelet aggregation)
T2 construct: arachidonic acid induced aggregation of washed rabbit platelets; endogenous in cells; host or cells: washed platelets of male New Zealand rabbits
T2 sequence (O97554 31-606): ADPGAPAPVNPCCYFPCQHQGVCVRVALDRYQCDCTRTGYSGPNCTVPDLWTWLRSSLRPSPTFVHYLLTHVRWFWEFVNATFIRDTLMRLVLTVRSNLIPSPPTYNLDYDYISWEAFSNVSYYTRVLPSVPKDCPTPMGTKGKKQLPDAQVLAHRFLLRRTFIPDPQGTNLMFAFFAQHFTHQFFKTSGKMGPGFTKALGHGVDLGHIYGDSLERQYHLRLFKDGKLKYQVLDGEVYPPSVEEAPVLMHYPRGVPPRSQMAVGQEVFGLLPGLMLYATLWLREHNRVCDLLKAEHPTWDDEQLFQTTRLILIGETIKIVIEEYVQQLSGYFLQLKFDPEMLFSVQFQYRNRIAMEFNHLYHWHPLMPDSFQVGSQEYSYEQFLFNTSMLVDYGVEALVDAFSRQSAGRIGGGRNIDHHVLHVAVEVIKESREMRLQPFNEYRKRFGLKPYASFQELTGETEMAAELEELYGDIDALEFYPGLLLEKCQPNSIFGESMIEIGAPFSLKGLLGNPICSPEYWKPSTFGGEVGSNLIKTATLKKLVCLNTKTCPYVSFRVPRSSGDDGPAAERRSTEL
Procedure: This protocol was used to assay the effect of the compounds on the cyclooxygenase. […] Blood was taken from the auricular artery of male New Zealand rabbit (2.5 kg mean body weight) on ACD (citric acid/sodium citrate/dextrose) as anticoagulant. The washed platelets were prepared and then transferred in the cuvet of the aggregometer (Chronolog aggregometer Coultronics).

[5] = tested on: vascular reactivity to methoxamine; assay: In vivo effect on endotoxin treated pithed rat; conditions: endotoxin 300 μg/kg/h, control 79 ± 9, EDTX 278 ± 34
Procedure: 10-In vivo effect on endotoxin treated pithed rat:
As previously reported, the association of an inhibitor of NO synthase and an inhibitor of cyclooxygenase has a synergistic effect to restore the blood pressure and vascular reactivity in an endotoxinic or septic animal.
Male Sprague Dawley rats (body weight 280-320 g) were pithed. One hour after pithing, animals were given endotoxin (EDTX, Escherichia Coli, lipopolysaccharide, O III, B4 =300 μg/kg/h) for 60 minutes. […]

[6] = molecular target: T3, constitutive NO synthase (Rattus norvegicus, UniProt Q62600); assay: In vitro effect on constitutive NO synthase in the isolated rat aorta; type: cell-based; conditions: isolated rat aorta with endothelium; reversal of carbachol relaxation; PE 1 μM; read-out: Test on constitutive NO synthase IC50
T3 construct: Preparations of isolated rat aorta with endothelium; from tissue; host or cells: isolated thoracic aorta rings with endothelium, Sprague Dawley rat
T3 sequence (Q62600 2-1202 limits assumed): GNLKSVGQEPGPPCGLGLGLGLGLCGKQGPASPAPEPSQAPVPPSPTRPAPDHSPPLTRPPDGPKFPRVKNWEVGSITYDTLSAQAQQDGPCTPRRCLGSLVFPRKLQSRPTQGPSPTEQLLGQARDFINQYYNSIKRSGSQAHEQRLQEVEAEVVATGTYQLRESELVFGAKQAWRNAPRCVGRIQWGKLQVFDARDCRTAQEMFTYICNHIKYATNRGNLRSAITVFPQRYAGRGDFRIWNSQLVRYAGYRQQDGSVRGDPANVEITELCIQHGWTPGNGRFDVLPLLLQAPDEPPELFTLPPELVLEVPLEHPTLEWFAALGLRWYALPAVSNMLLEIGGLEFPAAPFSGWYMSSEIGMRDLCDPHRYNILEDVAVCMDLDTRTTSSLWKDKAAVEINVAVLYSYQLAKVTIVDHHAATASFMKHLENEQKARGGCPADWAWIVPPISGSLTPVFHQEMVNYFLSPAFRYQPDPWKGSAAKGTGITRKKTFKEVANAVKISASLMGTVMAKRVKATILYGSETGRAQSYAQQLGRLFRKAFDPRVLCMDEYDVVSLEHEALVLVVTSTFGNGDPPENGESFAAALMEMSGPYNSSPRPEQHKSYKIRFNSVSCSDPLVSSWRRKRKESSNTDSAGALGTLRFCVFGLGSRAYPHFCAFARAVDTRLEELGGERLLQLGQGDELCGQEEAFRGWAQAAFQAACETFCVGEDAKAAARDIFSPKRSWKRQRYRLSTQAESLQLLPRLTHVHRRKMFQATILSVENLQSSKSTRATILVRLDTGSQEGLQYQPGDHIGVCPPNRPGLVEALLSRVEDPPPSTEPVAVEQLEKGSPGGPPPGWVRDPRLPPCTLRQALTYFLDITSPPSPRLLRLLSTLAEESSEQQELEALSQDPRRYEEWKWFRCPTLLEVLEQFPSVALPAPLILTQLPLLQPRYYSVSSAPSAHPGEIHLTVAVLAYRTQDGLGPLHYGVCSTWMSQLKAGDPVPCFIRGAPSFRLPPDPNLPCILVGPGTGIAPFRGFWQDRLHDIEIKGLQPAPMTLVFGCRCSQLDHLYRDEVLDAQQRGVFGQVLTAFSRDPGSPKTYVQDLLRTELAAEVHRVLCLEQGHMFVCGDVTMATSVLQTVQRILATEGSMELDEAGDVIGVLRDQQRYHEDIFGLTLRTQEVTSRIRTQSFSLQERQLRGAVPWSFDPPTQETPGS
Procedure: 1-In vitro effect on constitutive NO synthase in the isolated rat aorta;
Preparations of isolated rat aorta with endothelium were prepared as previously described (M. Auguet, S. Delaflotte, P. E. Chabrier and P. Braquet--Comparative effects of endothelium and phorbol 12-13 dibutyrate in rat aorta, Life Sciences, 1989, 45, 2051-2059).
Male Sprague Dawley rats (270-360 g, Charles River, Paris) were sacrificed by cervical dislocation and the thoracic aorta removed and cleaned of the surrounding tissue. Rings 2 mm wide were suspended in organ baths containing 10 ml of physiological solution (for composition, see below) under a tension of 2 g at 37° C. and gassed with O2 /CO2 (95%/5%). Contractile responses were measured, using force displacement transducers (Slatham UC2) coupled to a Gould 8000 S polygraph. An equilibration period of one hour was allowed before experimentation. Normal physiological solution was composed of (mM): NaCl, 118; KCl, 4.7; CaCl2, 2.5; KH2 PO4, 1.2; MgSO4, 0.6; NaHCO3, 25; glucose, 11. After equilibration in normal medium, the preparation was subjected to a near maximal dose (about 95%) of phenylephrine (PE, 1 μM). When the contraction was stable, carbachol (10 μM) was tested in order to evaluate the presence or absence of endothelium. […]

[7] = molecular target: T4, inducible NO synthase (Rattus norvegicus, UniProt Q06518); assay: In vitro effect on inducible NO synthase in the isolated rat aorta from endotoxin-shocked animal; type: cell-based; conditions: aorta from endotoxin-treated rats, endothelium disrupted; PE 1 μM; read-out: Test on inducible NO synthase IC50
T4 construct: the compounds were tested on isolated rat aorta from shocked animal; from tissue; host or cells: thoracic aorta rings, endothelium removed, from endotoxin-treated Sprague Dawley rats

Structure (SMILES): COC(=O)[C@@H](N)CCCNC(N)=N[N+](=O)[O-] [L-NAME, N-ω-nitro-L-Arginine methyl ester, reference compound]
- effect on release of 6 keto PGF1α [1]: not affected

Structure (SMILES): NC(=N[N+](=O)[O-])NCCC[C@H](N)C(=O)O [L-NO, N-ω-nitro-L-Arginine, reference compound]
- IC50 ([2]; Mus musculus, J774.A1, activated cells, LPS 1 μg/ml + IFNγ 50 U/ml, 48 h): 15 µM
- effect on release of 6 keto PGF1α [1]: not affected

Structure (SMILES): CC1=C(CC(=O)O)c2cc(F)ccc2/C1=C\c1ccc([S+](C)[O-])cc1.N=C(NCCC[C@H](N)C(=O)O)N[N+](=O)[O-] (stereo not shown) [Example 13]
- % OF INHIBITION of nitrite production ([2]; 10^-4 M, LPS+INF, J774): 71%
- % OF INHIBITION of nitrite production ([2]; 10^-5 M, LPS+INF, J774): 63%
- % OF INHIBITION of nitrite production ([2]; 10^-6 M, LPS+INF, J774): 56%

Structure (SMILES): COC(=O)C(CCCNC(=N)N[N+](=O)[O-])NC(=O)CC1=C(C)C(=Cc2ccc([S+](C)[O-])cc2)c2ccc(F)cc21 (stereo not shown) [Example 17]
- inhibition at 100 µM ([2]; Mus musculus, J774.A1, 10^-4 M, LPS+INF, J774): 73%
- inhibition at 10 µM ([2]; Mus musculus, J774.A1, 10^-5 M, LPS+INF, J774): 57%
- inhibition at 1 µM ([2]; Mus musculus, J774.A1, 10^-6 M, LPS+INF, J774): 49%
- inhibition at 100 µM ([1]; J774.A1, 10^-4 M, LPS+INF, J774A1, read-out: % OF INHIBITION of 6-keto PG F1 production): 92%
- inhibition at 10 µM ([1]; J774.A1, 10^-5 M, LPS+INF, J774A1, read-out: % OF INHIBITION of 6-keto PG F1 production): 83%
- inhibition at 1 µM ([1]; J774.A1, 10^-6 M, LPS+INF, J774A1, read-out: % OF INHIBITION of 6-keto PG F1 production): 74%
- Reduction of infarct [3]: -69%

Structure (SMILES): CC(=O)Oc1ccccc1C(=O)O [aspirin, acetylsalicylic acid, reference compound]
- IC50 [4]: 200 µM
- effect on release of 6 keto PGF1α [1]: abolished in a dose dependent manner
- vascular reactivity to methoxamine DE50 ([5]; dose 150 mg/kg/h): 136 ± 29 µg/kg

Structure (SMILES): C[C@]12N[C@H](Cc3ccccc31)c1ccccc12 [MK 801, reference compound]
- Reduction of infarct [3]: -51%

Structure (SMILES): CNC(=N)NCCCC(N)C(=O)O.Cc1cccc(Nc2ccccc2C(=O)O)c1C [Example 12]
- IC50 [6]: 10 µM

Structure (SMILES): COC(=O)[C@H](CCCNC(N)=N[N+](=O)[O-])NC(=O)c1ccccc1OC(C)=O [Example 16]
- IC50 [6]: 9 µM
- IC50 [7]: 4 µM

Structure (SMILES): CNC(=N)NCCC[C@H](N)C(=O)O.O=C(O)c1ccccc1O [Example 2]
- % OF INHIBITION of nitrite production ([2]; 10^-4 M, LPS+INF, J774): 75.5%
- % OF INHIBITION of nitrite production ([2]; 10^-5 M, LPS+INF, J774): 61%
- % OF INHIBITION of nitrite production ([2]; 10^-6 M, LPS+INF, J774): 53%
- vascular reactivity to methoxamine DE50 ([5]; dose 30 mg/kg/h): 98 ± 35 µg/kg
- Reduction of infarct [3]: -55%
